Test results: patent US20260262643A1, “HERBICIDAL BENZOXAZINES” (FMC CORPORATION, priority 2022, published 2026)

Assays:
barnyardgrass [1] = experiment: Test C preemergence; format: in vivo, Echinochloa crusgalli; conditions: 0 to 100 scale (0 no effect, 100 complete control)
Method in brief: (§1)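 Greenhouse herbicide screen, 10-day duration. Test chemicals in solvent/surfactant blend were sprayed onto soil at sowing (pre) or onto 2–10 cm seedlings at one to two leaves (post); injury scored visually against controls, 0 no effect to 100 complete control.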

blackgrass [2] = experiment: Test C preemergence; format: in vivo, Alopecurus myosuroides; conditions: 0 to 100 scale (0 no effect, 100 complete control)
Method in brief: as §1

corn [3] = experiment: Test C preemergence; format: in vivo, Zea mays; conditions: 0 to 100 scale (0 no effect, 100 complete control)
Method in brief: as §1

green foxtail [4] = experiment: Test C preemergence; format: in vivo, Setaria viridis; conditions: 0 to 100 scale (0 no effect, 100 complete control)
Method in brief: as §1

kochia [5] = experiment: Test C preemergence; format: in vivo, Bassia scoparia; conditions: 0 to 100 scale (0 no effect, 100 complete control)
Method in brief: as §1

oat, wild [6] = experiment: Test C preemergence; format: in vivo, Avena fatua; conditions: 0 to 100 scale (0 no effect, 100 complete control)
Method in brief: as §1

pigweed, palmer [7] = experiment: Test C preemergence; format: in vivo, Amaranthus palmeri; conditions: 0 to 100 scale (0 no effect, 100 complete control)
Method in brief: as §1

ragweed [8] = experiment: Test C preemergence; format: in vivo, Ambrosia artemisiifolia; conditions: 0 to 100 scale (0 no effect, 100 complete control)
Method in brief: as §1

ryegrass, Italian [9] = experiment: Test C preemergence; format: in vivo, Lolium multiflorum; conditions: 0 to 100 scale (0 no effect, 100 complete control)
Method in brief: as §1

soybean [10] = experiment: Test C preemergence; format: in vivo, Glycine max; conditions: 0 to 100 scale (0 no effect, 100 complete control)
Method in brief: as §1

wheat [11] = experiment: Test C preemergence; format: in vivo, Triticum aestivum; conditions: 0 to 100 scale (0 no effect, 100 complete control)
Method in brief: as §1

barnyardgrass [12] = experiment: Test C postemergence; format: in vivo, Echinochloa crusgalli; conditions: 10 days
Method in brief: as §1

blackgrass [13] = experiment: Test C postemergence; format: in vivo, Alopecurus myosuroides; conditions: 10 days
Method in brief: as §1

corn [14] = experiment: Test C postemergence; format: in vivo, Zea mays; conditions: 10 days
Method in brief: as §1

green foxtail [15] = experiment: Test C postemergence; format: in vivo, Setaria viridis; conditions: 10 days
Method in brief: as §1

kochia [16] = experiment: Test C postemergence; format: in vivo, Bassia scoparia; conditions: 10 days
Method in brief: as §1

oat, wild [17] = experiment: Test C postemergence; format: in vivo, Avena fatua; conditions: 10 days
Method in brief: as §1

pigweed, palmer [18] = experiment: Test C postemergence; format: in vivo, Amaranthus palmeri; conditions: 10 days
Method in brief: as §1

ragweed [19] = experiment: Test C postemergence; format: in vivo, Ambrosia artemisiifolia; conditions: 10 days
Method in brief: as §1

ryegrass, Italian [20] = experiment: Test C postemergence; format: in vivo, Lolium multiflorum; conditions: 10 days
Method in brief: as §1

soybean [21] = experiment: Test C postemergence; format: in vivo, Glycine max; conditions: 10 days
Method in brief: as §1

wheat [22] = experiment: Test C postemergence; format: in vivo, Triticum aestivum; conditions: 10 days
Method in brief: as §1

horseweed = experiment: Test C postemergence; format: in vivo, Erigeron canadensis; conditions: 10 days
Method in brief: as §1

barnyardgrass [23] = experiment: Test D flooded paddy test; format: in vivo, Echinochloa crus-galli; conditions: 250 g ai/ha, applied to paddy water, visual rating after 13 to 14 days, scale 0 to 100 (0 no effect, 100 complete control)
Method in brief: (§2)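 Compounds go straight into paddy water over 2-leaf plants in pots flooded to 3 cm. Greenhouse holding lasts 13 to 14 days. Injury is scored by eye against controls from 0 (none) to 100 (complete control).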

ducksalad = experiment: Test D flooded paddy test; format: in vivo, Heteranthera limosa; conditions: 250 g ai/ha, applied to paddy water, visual rating after 13 to 14 days, scale 0 to 100 (0 no effect, 100 complete control)
Method in brief: as §2

rice = experiment: Test D flooded paddy test; format: in vivo, Oryza sativa; conditions: 250 g ai/ha, applied to paddy water, visual rating after 13 to 14 days, scale 0 to 100 (0 no effect, 100 complete control)
Method in brief: as §2

sedge, umbrella = experiment: Test D flooded paddy test; format: in vivo, Cyperus difformis; conditions: 250 g ai/ha, applied to paddy water, visual rating after 13 to 14 days, scale 0 to 100 (0 no effect, 100 complete control)
Method in brief: as §2

[24] = Preemergence, 500 g ai/ha, visual rating after 10 days
[25] = Test C, preemergence, 125 g ai/ha
[26] = 125 g ai/ha, postemergence, 0 to 100 scale, 0 no effect, 100 complete control
[27] = Postemergence, 500 g ai/ha, visual 0 to 100 scale (0 no effect, 100 complete control)

## COc1cc(C(=O)N2C[C@H](C)Oc3c(Cl)cccc32)cc(-n2cnc(C(C)C)n2)c1 [Compound 212]
Barnyardgrass [1]; [24]
  Plant response rating, Barnyardgrass: 100
Barnyardgrass [1]; [25]
  Barnyardgrass plant response rating: 80
Blackgrass [2]; [24]
  Plant response rating, Blackgrass: 90
Blackgrass [2]; [25]
  Blackgrass plant response rating: 60
Corn [3]; [24]
  Plant response rating, Corn: 70
Corn [3]; [25]
  Corn plant response rating: 20
Green foxtail [4]; [24]
  Plant response rating, Foxtail, Green: 100
Green foxtail [4]; [25]
  Foxtail, Green plant response rating: 100
Kochia [5]; [24]
  Plant response rating, Kochia: 90
Kochia [5]; [25]
  Kochia plant response rating: 90
oat, wild [6]; [24]
  Plant response rating, Oat, Wild: 90
oat, wild [6]; [25]
  Oat, Wild plant response rating: 70
pigweed, palmer [7]; [24]
  Plant response rating, Pigweed, Palmer: 100
pigweed, palmer [7]; [25]
  Pigweed, Palmer plant response rating: 100
Ragweed [8]; [24]
  Plant response rating, Ragweed: 50
Ragweed [8]; [25]
  Ragweed plant response rating: 0
ryegrass, Italian [9]; [24]
  Plant response rating, Ryegrass, Italian: 100
ryegrass, Italian [9]; [25]
  Ryegrass, Italian plant response rating: 90
Soybean [10]; [24]
  Plant response rating, Soybean: 100
Soybean [10]; [25]
  Soybean plant response rating: 90
Wheat [11]; [24]
  Plant response rating, Wheat: 30
Wheat [11]; [25]
  Wheat plant response rating: 40
Barnyardgrass [12]; [26]
  Plant response rating, Barnyardgrass: 30
Barnyardgrass [12]; [27]
  Plant response rating, Barnyardgrass: 50
Blackgrass [13]; [26]
  Plant response rating, Blackgrass: 50
Blackgrass [13]; [27]
  Plant response rating, Blackgrass: 100
Corn [14]; [26]
  Plant response rating, Corn: 20
Corn [14]; [27]
  Plant response rating, Corn: 90
Green foxtail [15]; [26]
  Plant response rating, Foxtail, Green: 80
Green foxtail [15]; [27]
  Plant response rating, Foxtail, Green: 90
Kochia [16]; [26]
  Plant response rating, Kochia: 80
Kochia [16]; [27]
  Plant response rating, Kochia: 90
oat, wild [17]; [26]
  Plant response rating, Oat, Wild: 40
oat, wild [17]; [27]
  Plant response rating, Oat, Wild: 80
pigweed, palmer [18]; [26]
  Plant response rating, Pigweed, Palmer: 90
pigweed, palmer [18]; [27]
  Plant response rating, Pigweed, Palmer: 90
Ragweed [19]; [26]
  Plant response rating, Ragweed: 20
Ragweed [19]; [27]
  Plant response rating, Ragweed: 70
ryegrass, Italian [20]; [26]
  Plant response rating, Ryegrass, Italian: 50
ryegrass, Italian [20]; [27]
  Plant response rating, Ryegrass, Italian: 70
Soybean [21]; [26]
  Plant response rating, Soybean: 100
Soybean [21]; [27]
  Plant response rating, Soybean: 100
Wheat [22]; [26]
  Plant response rating, Wheat: 20
Wheat [22]; [27]
  Plant response rating, Wheat: 80
horseweed; [26]
  Plant response rating, Horseweed: 0
horseweed; [27]
  Plant response rating, Horseweed: 50
Barnyardgrass [23]
  Plant response rating, Barnyardgrass (Flood): 25
ducksalad
  Plant response rating, Ducksalad (Flood): 95
rice
  Plant response rating, Rice (Flood): 40
sedge, umbrella
  Plant response rating, Sedge, Umbrella (Flood): 98
